Molecular target: HIV-1 protease KY variant (Human immunodeficiency virus 1, UniProt P12497, L577V/L578M/Q495K, form not given)

CC(C)CN(C[C@@H](O)[C@H](Cc1ccccc1)NC(=O)O[C@H]1CO[C@H]2OCC[C@H]21)S(=O)(=O)c1ccc(N)cc1 [DRV, darunavir]
times more tightly bound than expected under additivity of binding free energies (KY variant protease): about 3.5 times | increase in Ki compared with the NL4–3 WT protease (all of the KY variants vs NL4–3 WT): ≥ 500 fold

Reference: PMC6941756 (Biochemistry, 2019)
